Earlier results in US20040028740A1, “Steroid hormones as transfer agents” (priority 2000, published 2004).

[1] = daily doses of 200 mg and 300 mg

- effect on HDL-cholesterol levels [1]: does not affect
- effect on liver enzymes (ASAT, ALAT, AFOS) [1]: does not affect
- effect on sex-hormone binding-globulin (SHBG) synthesis [1]: does not affect
Structure (SMILES): CC(=O)[C@H]1CC[C@H]2[C@@H]3CCC4=CC(=O)CC[C@]4(C)[C@H]3CC[C@]12C [progesterone]
- effect on carbohydrate metabolism (orally administered): adversely affects neither
- effect on plasma lipids (orally administered): adversely affects neither
